Laboratory results from ChEMBL document CHEMBL1153520, “A multivalent approach to the design and discovery of orally efficacious 5-HT4 receptor agonists” (J Med Chem, 2009).
pEC50, pKi: −log10 of the molar value.

What was measured:
[1] = biological target: T1, 5-hydroxytryptamine receptor 4 (Homo sapiens, UniProt Q13639); test: Agonist activity at human 5HT4C receptor expressed in HEK293 cells assessed as accumulation of cAMP by flash plate adenylyl cyclase activation assay; assay type: functional, cell-based
[2] = biological target: T1, 5-hydroxytryptamine receptor 4; test: Displacement of [H]GR-113808 from human 5HT4C receptor expressed in HEK293 cells by liquid scintillation counting; assay type: cell-based
[3] = species: Homo sapiens; test: Selectivity ratio of Ki for human 5HT3A receptor to Ki for human 5HT4C receptor
[4] = Permeability across human Caco-2 cells assessed as permeability coefficient; assay type: ADME, cell-based; details: read-out: permeability
[5] = biological target: hERG (KCNH2) (Homo sapiens, UniProt Q12809); test: Inhibition of human ERG potassium channel expressed in CHO-K1 cells at 3 uM by whole cell voltage clamp assay; assay type: cell-based; details: CHO-K1 cells expressing human ERG potassium channel
[6] = biological target: T1, 5-hydroxytryptamine receptor 4; test: Intrinsic activity at human 5HT4C receptor expressed in HEK293 cells assessed as accumulation of cAMP by flash plate adenylyl cyclase activation assay relative to serotonin; assay type: functional, cell-based

hERG (KCNH2), sequence (Q12809 whole entry): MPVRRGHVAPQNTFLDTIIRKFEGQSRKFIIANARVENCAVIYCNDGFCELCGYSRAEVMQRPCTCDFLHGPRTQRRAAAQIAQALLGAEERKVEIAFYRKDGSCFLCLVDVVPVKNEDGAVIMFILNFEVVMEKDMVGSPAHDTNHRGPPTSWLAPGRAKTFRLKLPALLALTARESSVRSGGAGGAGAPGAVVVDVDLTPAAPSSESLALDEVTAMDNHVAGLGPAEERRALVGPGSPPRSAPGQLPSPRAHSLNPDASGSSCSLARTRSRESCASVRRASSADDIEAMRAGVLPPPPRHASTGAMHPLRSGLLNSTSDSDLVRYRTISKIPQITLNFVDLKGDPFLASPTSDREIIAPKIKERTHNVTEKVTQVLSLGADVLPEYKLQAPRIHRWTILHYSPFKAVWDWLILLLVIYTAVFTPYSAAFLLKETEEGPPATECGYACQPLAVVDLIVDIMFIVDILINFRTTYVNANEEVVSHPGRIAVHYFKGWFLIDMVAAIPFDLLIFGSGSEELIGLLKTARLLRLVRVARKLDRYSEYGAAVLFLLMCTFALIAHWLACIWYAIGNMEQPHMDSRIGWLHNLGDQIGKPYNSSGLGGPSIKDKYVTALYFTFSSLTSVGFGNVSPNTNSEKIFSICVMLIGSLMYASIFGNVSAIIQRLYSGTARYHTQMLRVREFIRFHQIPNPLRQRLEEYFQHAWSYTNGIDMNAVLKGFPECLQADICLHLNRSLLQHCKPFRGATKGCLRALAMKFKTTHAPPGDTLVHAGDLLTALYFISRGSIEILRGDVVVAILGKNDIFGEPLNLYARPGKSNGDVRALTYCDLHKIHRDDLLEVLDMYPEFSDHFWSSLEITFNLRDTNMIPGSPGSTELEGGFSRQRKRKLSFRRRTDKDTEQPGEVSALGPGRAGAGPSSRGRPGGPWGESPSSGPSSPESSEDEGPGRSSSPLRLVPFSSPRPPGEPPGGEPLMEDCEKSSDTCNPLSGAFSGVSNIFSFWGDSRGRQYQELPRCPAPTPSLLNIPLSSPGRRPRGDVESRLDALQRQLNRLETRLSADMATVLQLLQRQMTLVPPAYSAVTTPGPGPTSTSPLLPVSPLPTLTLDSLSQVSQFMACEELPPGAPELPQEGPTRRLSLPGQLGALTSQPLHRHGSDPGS
T1 sequence (Q13639 whole entry): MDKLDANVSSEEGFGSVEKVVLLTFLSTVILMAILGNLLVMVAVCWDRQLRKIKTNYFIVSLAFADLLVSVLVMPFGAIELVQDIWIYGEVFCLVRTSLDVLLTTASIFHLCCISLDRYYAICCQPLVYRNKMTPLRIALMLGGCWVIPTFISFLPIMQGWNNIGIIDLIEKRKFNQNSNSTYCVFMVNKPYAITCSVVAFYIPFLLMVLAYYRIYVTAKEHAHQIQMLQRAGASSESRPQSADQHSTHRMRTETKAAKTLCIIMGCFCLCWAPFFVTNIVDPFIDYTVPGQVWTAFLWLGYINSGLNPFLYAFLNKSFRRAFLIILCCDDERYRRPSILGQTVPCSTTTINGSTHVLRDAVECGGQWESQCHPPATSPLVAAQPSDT

| Structure (SMILES) | pEC50 [1] | pKi [2] | Ratio Ki [3] | Papp [4] [×10⁻⁶ cm/s] | inhibition at 3 µM [5] [%] | Intrinsic activity [6] [%] |
| --- | --- | --- | --- | --- | --- | --- |
| CC(C)n1c(=O)c(C(=O)N[C@H]2C[C@H]3CC[C@@H](C2)N3CCCCCCCN2CCC[C@@H]2C(N)=O)cc2ccccc21 | 9.40 | 8.70 | 20000 | 9 | 7 | > 100 |
| CC(C)n1c(=O)c(C(=O)N[C@H]2C[C@H]3CC[C@@H](C2)N3CCCCCCCN2CCN(c3ccccc3)CC2)cc2ccccc21 | 8.10 | 8.40 | 5300 | 20 | 97 | > 100 |
| CC(C)n1c(=O)c(C(=O)N[C@H]2C[C@H]3CC[C@@H](C2)N3CCCN2CCC(CNS(C)(=O)=O)CC2)cc2ccccc21 | 9.00 | 8.30 | 11000 | 3 | 14 | > 100 |
| CC(C)n1c(=O)c(C(=O)N[C@H]2C[C@H]3CC[C@@H](C2)N3CCCN2CCOCC2)cc2ccccc21 | 8.60 | 7.40 | 750 | 22 | 80 | > 100 |
| CC(C)n1c(=O)c(C(=O)N[C@H]2C[C@H]3CC[C@@H](C2)N3C[C@H](O)CN2CCN(S(C)(=O)=O)CC2)cc2ccccc21 | 8.90 | 7.30 | 1300 | 20 | 6 | > 100 |
| CC(C)n1c(=O)c(C(=O)N[C@H]2C[C@H]3CC[C@@H](C2)N3CCCN2CCCCC2)cc2ccccc21 | 8.70 | 8.20 | 9200 | 24 | 39 | > 100 |
| CC(C)n1c(=O)c(C(=O)N[C@H]2C[C@H]3CC[C@@H](C2)N3CCCCCCCN2CCC(CNS(C)(=O)=O)CC2)cc2ccccc21 | 9.20 | 8.60 | 3100 | 2 | 5 | 98 |
| CCOC(=O)N1CCN(CCCN2[C@@H]3CC[C@H]2C[C@@H](NC(=O)c2cc4ccccc4n(C(C)C)c2=O)C3)CC1 | 8.60 | 7.40 | 1300 | 31 | 75 | > 100 |
| COc1cc(N)c(Cl)cc1C(=O)NC1CCN(CCCCCN2CCN(S(C)(=O)=O)CC2)CC1 | 7.90 | 7.40 | 280 |  |  | > 100 |
| COc1cc(N)c(Cl)cc1C(=O)NC1CCN(CCN(C)CCc2c[nH]c3ccccc23)CC1 | 7.80 | 7.40 | 290 |  |  | > 100 |
| COc1ccc2[nH]cc(C(=O)NCC3CCNCC3)c2c1 | 5.20 | 5.40 | 1.1 |  |  | 42 |
| COc1cc(N)c(Cl)cc1C(=O)NC1CCN(CCCCCCCCN2CCCCC2)CC1 | 8.50 | 8.50 | 2000 |  |  | > 100 |
| CC(C)n1c(=O)c(C(=O)N[C@H]2C[C@H]3CC[C@@H](C2)N3CCCN2CCN(c3ccccc3)CC2)cc2ccccc21 | 9.10 | 8.10 | 1000 | 22 | 90 | > 100 |
| CC(C)n1c(=O)n(C(=O)NCC2CCNCC2)c2ccccc21 | 7.80 | 7.40 | 0.21 |  |  | 92 |
| COc1cc(N)c(Cl)cc1C(=O)NC1CCNCC1 | 6.40 | 5.80 | 0.095 |  |  | > 100 |
| CC(C)n1c(=O)c(C(=O)N[C@H]2C[C@H]3CC[C@@H](C2)N3CCCN(C)CCCN(C)S(C)(=O)=O)cc2ccccc21 | 8.00 | 6.70 | 210 | 4 | 6 | > 100 |

| Structure (SMILES) | pEC50 [1] | pKi [2] | Ratio Ki [3] | Papp [4] [×10⁻⁶ cm/s] | inhibition at 3 µM [5] [%] | Intrinsic activity [6] [%] |
| --- | --- | --- | --- | --- | --- | --- |
| COc1cc(N)c(Cl)cc1C(=O)NC1CCN(CCCCCCCCS(=O)(=O)O)CC1 | 6.00 | 4.80 | 4.3 |  |  | > 100 |
| CC(C)n1c(=O)c(C(=O)N[C@H]2C[C@H]3CC[C@@H](C2)N3CC(O)CN2CCN(S(C)(=O)=O)CC2)cc2ccccc21 (mixture of isomers) | 9.10 | 7.70 | 2400 | 19 | 10 | > 100 |
| COc1cc(N)c(Cl)cc1C(=O)NC1CCN(CCCCCCCCN2CCN(S(C)(=O)=O)CC2)CC1 | 7.40 | 7.80 | 330 |  |  | > 100 |
| CCOC(=O)N1CCN(CCCCCCCN2[C@@H]3CC[C@H]2C[C@@H](NC(=O)c2cc4ccccc4n(C(C)C)c2=O)C3)CC1 | 8.50 | 8.10 | 810 | 14 | 87 | > 100 |
| CC(C)n1c(=O)c(C(=O)N[C@H]2C[C@H]3CC[C@@H](C2)N3CCCCCCCCN2C(=O)c3ccccc3C2=O)cc2ccccc21 | 7.30 | 7.50 | 120 |  |  | > 100 |
| CC(C)n1c(=O)c(C(=O)N[C@H]2C[C@H]3CC[C@@H](C2)N3CCCCCN2C(=O)c3ccccc3C2=O)cc2ccccc21 | 7.60 | 7.80 | 1200 |  |  | > 100 |
| COc1cc(N)c(Cl)cc1C(=O)N[C@H]1C[C@H]2CC[C@@H](C1)N2 | 7.00 | 6.80 | 0.2 |  |  | 57 |
| CCN1[C@@H]2CC[C@H]1C[C@@H](NC(=O)c1cc3ccccc3n(C(C)C)c1=O)C2 | 7.50 | 6.90 | 19 |  |  | 96 |
| CC(C)n1c(=O)c(C(=O)N[C@H]2C[C@H]3CC[C@@H](C2)N3CCCCCCCN2CCOCC2)cc2ccccc21 | 8.60 | 8.70 | 1600 | 28 | 34 | > 100 |
| CC(C)n1c(=O)c(C(=O)N[C@H]2C[C@H]3CC[C@@H](C2)N3CCN2CCCCC2)cc2ccccc21 | 8.00 | 7.10 | 720 |  |  | > 100 |
| CC(C)n1c(=O)n(C(=O)NCCN2CCNCC2)c2ccccc21 | 8.10 | 6.90 | 1 |  |  | > 100 |
| CC(C)n1c(=O)c(C(=O)N[C@H]2C[C@H]3CC[C@@H](C2)N3CCCCCCCCN(C)CCc2c[nH]c3ccccc23)cc2ccccc21 | 9.00 | 8.50 | 2300 |  |  | > 100 |
| COc1ccc2[nH]cc(C(=O)N[C@H]3C[C@H]4CC[C@@H](C3)N4)c2c1 | 5.60 | 5.50 | 1.4 |  |  | 77 |
| CC(C)n1c(=O)c(C(=O)N[C@H]2C[C@H]3CC[C@@H](C2)N3CCN2C(=O)c3ccccc3C2=O)cc2ccccc21 | 7.10 | 6.00 | 55 |  |  | > 100 |
| CC(C)n1c(=O)c(C(=O)N[C@H]2C[C@H]3CC[C@@H](C2)N3CCCCCN2CCCCC2)cc2ccccc21 | 9.00 | 8.30 | 8100 |  |  | > 100 |
| COc1cc(N)c(Cl)cc1C(=O)NC1CCN(CCN2CCCCC2)CC1 | 7.00 | 6.60 | 3.9 |  |  | > 100 |
